Data taken from PubChem BioAssay (NCI).
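Exposure lasted 48 hours, with cells grown in 96-well plates and compounds tested at five concentrations. TGI: concentration producing complete growth inhibition.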

What was measured:
Assay in all cases: inhibition of tumour cell growth, NCI panel, 48 h
NCI-H522 lung = tested on: NCI-H522 lung
SNB-19 CNS = tested on: SNB-19 CNS
ACHN renal = tested on: ACHN renal
CCRF-CEM leukemia = tested on: CCRF-CEM leukemia
UACC-62 melanoma = tested on: UACC-62 melanoma
A498 renal = tested on: A498 renal
NCI/ADR-RES ovarian = tested on: NCI/ADR-RES ovarian
U251 CNS = tested on: U251 CNS
HCT-116 colon = tested on: HCT-116 colon
PC-3 prostate = tested on: PC-3 prostate
MDA-N = tested on: MDA-N
BT-549 breast = tested on: BT-549 breast

SMILES	TGI (NCI-H522 lung) [µM]	TGI (SNB-19 CNS) [µM]	TGI (ACHN renal) [µM]	TGI (CCRF-CEM leukemia) [µM]	TGI (UACC-62 melanoma) [µM]	TGI (A498 renal) [µM]	TGI (NCI/ADR-RES ovarian) [µM]	TGI (U251 CNS) [µM]	TGI (HCT-116 colon) [µM]	TGI (PC-3 prostate) [µM]	TGI (MDA-N) [µM]	TGI (BT-549 breast) [µM]
Clc1ccc(C(OCn2ccnc2)c2nc3ccccc3[nH]2)c(Cl)c1 (stereo unspecified)	> 100	> 100	> 100	> 100	> 100	> 100	> 100	> 100	> 100	> 100	> 100	81.7
CC1=C(C(=O)NNC(=O)C[N+](C)(C)C)CC(C(=O)NNC(=O)C[N+](C)(C)C)=C(C)N1	> 100	> 100	> 100	94	> 100	> 100	> 100	> 100	> 100	> 100	> 100	> 100
COc1ccc(NC(=S)c2ccc([N+](=O)[O-])o2)cc1	2.92	11.7	5.42	8.66	3.47	29.1	12.2	2.55	3.12	2.97	6.11	4.69
Cc1cccc(C)c1NC(=O)C(=O)CC(=O)c1sc(Nc2c(C)cccc2C)nc1C	> 100	> 100	> 100	> 100	> 100	> 100	> 100	> 100	> 100	> 100	> 100	> 100
COc1ccc(OC/C(N)=N/NC(=O)c2ccncc2)cc1	> 100	> 100	> 100	> 100	> 100	> 100	> 100	> 100	> 100	> 100	> 100	> 100
S=c1[nH]nc(Cn2c3ccc(Br)cc3c3nc4ccccc4nc32)o1	69.6	> 100	> 100	> 100	> 82.6	> 100	> 100	> 92.4	> 100	> 93.2	> 100	> 100
NS(=O)(=O)c1c(O)c2ccccc2oc1=O	> 100	> 100	> 100	> 100	> 100	> 100	> 100	> 100	> 100	> 100	> 100	> 100
Cc1cnc2[nH]c(-c3cccc4ccccc34)cc(=O)c2c1	0.00072	> 100	64.6	> 100	> 100	0.00286	> 100	0.0129	> 100	> 100	0.000572	> 100
CCCCCC(=O)OC[n+]1cccc(-c2c(COC(=O)NC(C)C)c(COC(=O)NC(C)C)c3n2CCC3)c1	25.2	> 100	> 100	> 61	89.2	37.7	> 100	> 100	> 100	> 100	> 100	> 100
CN(/N=C/c1ccccn1)C1=NCCN1	> 100	> 100	> 100	> 100	> 100	> 100	> 100	> 100	> 100	> 100	> 100	> 100
CC(=O)Oc1ccc(-c2nnc(-c3ccc(OC(C)=O)cc3)nn2)cc1	> 100	> 100	> 100	> 100	> 100	> 100	> 100	> 100	> 100	> 100	> 100	> 100
CC(C)C(=O)Cc1ccc2ccccc2n1	> 100	> 100	> 100	> 100	> 100	> 100	> 100	> 100	> 100	> 100	> 100	> 100
NC(CCC(=O)O)C(=O)NC(Cc1ccc(N(CCCl)CCCl)cc1)C(=O)O (stereo unspecified)	> 100	> 100	> 100	> 100	> 100	> 100	> 100	> 100	> 100	> 100	> 100	> 100
O=C(/C=C/c1ccccc1)CCN1CCCCC1	47.4	> 100	> 100	> 100	> 100	> 100	> 100	65.6	32.1	> 100	60.1	> 100
Cc1cn([C@H]2C[C@@H](N3C(=O)c4ccccc4C3=O)[C@@H](CO[Si](C)(C)C(C)(C)C)O2)c(=O)[nH]c1=O	> 100	> 100	> 100	> 100	74.9	> 100	> 100	> 100	> 100	> 100	> 100	> 100
COC(=O)c1sc(=S)sc1SCc1cccc(CSc2sc(=S)sc2C(=O)OC)c1	> 100	86.3	> 100	> 100	> 100	62.2	> 100	> 100	> 100	> 100	> 100	94.1
CO/C(N)=C(\C#N)N=Cc1ccsc1	79.6	> 100	> 100	81	> 100	> 100	> 100	> 100	> 100	> 100	> 100	69.7
Cc1ccc2c(=O)cc(-c3cc(C)sc3C)[nH]c2n1	> 22.2	> 100	> 100	> 25.5	> 100	> 100	5.29	> 100	> 69	> 30.2	1.92	> 100

SMILES	TGI (NCI-H522 lung) [µM]	TGI (SNB-19 CNS) [µM]	TGI (ACHN renal) [µM]	TGI (CCRF-CEM leukemia) [µM]	TGI (UACC-62 melanoma) [µM]	TGI (A498 renal) [µM]	TGI (NCI/ADR-RES ovarian) [µM]	TGI (U251 CNS) [µM]	TGI (HCT-116 colon) [µM]	TGI (PC-3 prostate) [µM]	TGI (MDA-N) [µM]	TGI (BT-549 breast) [µM]
COc1cc(S(=O)(=O)Nc2nc(-c3ccc(N=Cc4ccccc4O)cc3)cs2)ccc1Cl	> 100	> 100	> 100	> 100	75.9	> 100	> 100	> 100	> 100	> 100	> 100	> 100
N/C(=N\N=C\c1nc2ccccc2o1)c1cnccn1	> 100	> 100	> 100	> 100	> 100	> 100	> 100	> 100	> 100	> 100	> 100	> 100
Cc1nc2ccc(N=Nc3c(C)noc3C)cc2[nH]1	> 100	> 100	86.2	> 100	75.9	34.8	> 100	> 100	91.4	> 100	> 100	> 100
NCCc1ccc(S(=O)(=O)O)cc1[N+](=O)[O-]	> 100	> 100	> 100	> 100	> 100	> 100	> 100	> 100	> 100	> 100	> 100	> 100
COc1ccc(/C=C2\C[C@H]3[C@@H]4CC=C5C[C@@H](O)CC[C@]5(C)[C@H]4CC[C@]3(C)\C2=N\O)cc1	50	> 100	> 100	> 100	50.3	71.7	> 100	> 100	29.3	> 100	> 100	36.5
CC1C(OS(=O)(=O)c2ccc3[nH]c(=S)sc3c2)CC2C3(C)CCC2(C(C)C(=O)O)C(O)C13 (stereo unspecified)	17.2	> 100	31.8	65.5	63.3	> 100	> 100	38.6	27.3	> 100	69.8	66
Cc1nc2ccc(S(=O)(=O)O)cc2c(=O)n1-c1ccc(C(=O)NN2C(=O)C(Cl)C2c2cccs2)cc1 (stereo unspecified)	> 100	> 100	> 100	> 100	> 100	> 100	> 100	> 100	> 100	> 100	80.2	> 100
CC(C)=CCC[C@@H](C)C1=C(N)C(O)=C(C)C(=O)C1=O	50.9	> 75	> 53.4	> 70.9	> 75	> 75	> 38.8	> 75	> 75	> 75	> 75	> 75
O=C(O)CCC(NC(=O)c1ccc(Nc2nc3ccc(C(F)(F)F)cc3nc2C(=O)O)cc1)C(=O)O (stereo unspecified)	> 100	> 100	> 100	> 100	> 100	> 100	> 100	> 100	> 100	> 100	> 100	> 100
CN(Cc1cccc2ccsc12)/N=C\c1ccc(Cl)cc1	> 100	> 100	> 100	> 100	> 100	> 100	> 100	> 100	> 100	> 100	> 100	> 100
O=c1c2sc3ccccc3sc=2c(=O)c2c(Cl)c(Cl)c(Cl)c(Cl)c12	> 100	> 100	> 100	> 100	> 100	> 100	> 100	> 100	> 100	> 100	> 100	> 100
O[C@@H]1[C@H](OC2c3ccccc3-c3ccccc32)[C@H](OCc2ccccc2)[C@@H]2OC[C@H]1O2	> 100	> 100	> 100	> 100	> 100	> 100	> 100	> 100	> 100	> 100	> 100	> 100
O=C1CSC(c2cc3cc(Br)ccc3nc2Cl)N1c1ccc(Cl)cc1 (stereo unspecified)	57.3	> 100	> 100	97.6	22.6	> 100	75.3		77	> 100	> 100	61.5
CCOc1ccc(NC(=O)C(=O)C(/C(=N/N)C(=O)OC)c2nc3ccc([N+](=O)[O-])cc3[nH]c2=O)cc1 (stereo unspecified)	> 100	> 100	> 100	> 100	> 100	> 100	> 100	> 100	> 100	> 100	> 100	> 100
CCc1nc(N)nc(N)c1-c1ccc(N2CCOCC2)c(N=[N+]=[N-])c1	37.9	> 78.4	> 100	> 100	> 100	> 100	> 100	> 100	> 100	> 100	> 100	> 100
COc1cc(Nc2cc(Cl)cc(Cl)c2)nc(N)n1	35.9	64.8	37.4	43.3	33.4	39.9	45.4	41.2	31	59.6	62.3	40.8
O=C(OC1OC2COC(=O)c3cc(O)c(O)c(O)c3-c3c(cc(O)c(O)c3O)C(=O)OC3C2OC(=O)[C@@]24CC(=O)[C@@](O)(OC25C(=O)O[C@H]2[C@@H](O)CO[C@@]25O)C2(O)Oc5c(O)c(O)cc(c5C24)C(=O)OC13)c1cc(O)c(O)c(O)c1 (stereo partly specified)	88	> 100	> 100	87.8	> 100	> 100	> 100	> 100	> 100	> 100	> 100	> 100
C[C@H]1CCC/C=C/[C@@H]2C[C@H](OC(=O)CN(C)C)C[C@H]2[C@H](O)/C=C/C(=O)O1	1.39	> 100	11.4	> 100	22.1	> 32.3	0.326	> 100	0.746	8.74	> 100	> 71
